Consider 3 compounds from patent US10125075B2, “P-toluic acid production method” (TORAY INDUSTRIES, INC., priority 2015, dated 2018).

By solubility is commonly meant the dissolved amount per volume that the medium holds. A low value points to little dissolved substance.

One data set is described as follows: physchem. The conditions noted are these: 25 °C, pH 7, aqueous buffer.
The nature of another data set: solubility in water. The conditions noted are these: 25 °C.
The conditions of data set [1]: pH 7, 25° C.; 'known to be'; cited from earlier work.

Structures are written as SMILES. Converted amounts (≈) assume the structure as drawn. Where only a bound is given, the exact number is not on record here.

Regarding `CC1C(O)C=C(C(=O)O)CC1O` (stereo not shown) [Compound (1)], the solubility in the data set “physchem” is ≥ 50 mg/mL. `CC1C(O)CC(O)(C(=O)O)CC1O` (stereo not shown) [Compound (2)]: the solubility in the data set “solubility in water” (pH 7, aqueous buffer) is ≥ 50 mg/mL.

As to `Cc1ccc(C(=O)O)cc1` [p-toluic acid], in “solubility in water” (pH 0, aqueous buffer), the solubility was ≤ 0.1 mg/mL. Moreover, the solubility in water in data set [1] is 0.3 mg/mL (≈ 2.2 mM).
